According to ChEMBL document CHEMBL2176881, “Development of N-[4-[6-(isopropylamino)pyrimidin-4-yl]-1,3-thiazol-2-yl]-N-methyl-4-[11C]methylbenzamide for positron emission tomography imaging of metabotropic glutamate 1 receptor in monkey brain” (J Med Chem, 2012):

Columns and labels:
[1] = system: Heart; assay: Biodistribution in ddY mouse heart at 4.8 MBq/0.1 mL after 60 mins by gamma counting; format: ADME, organism-based; conditions: in vivo, 1 h
[2] = system: Hippocampus; assay: Drug uptake in monkey hippocampus assessed as distribution volume ratio at 185 to 220 MBq, iv after 10 to 90 mins by PET analysis; format: ADME, organism-based, Macaca mulatta; conditions: rhesus monkey, in vivo
[3] = system: Heart; assay: Biodistribution in ddY mouse heart at 4.8 MBq/0.1 mL after 15 mins by gamma counting; format: ADME, organism-based; conditions: in vivo, 0.25 h
[4] = organism: Mus musculus; assay: Biodistribution in ddY mouse testis at 4.8 MBq/0.1 mL after 5 mins by gamma counting; format: ADME, organism-based; conditions: in vivo
[5] = Drug uptake in monkey putamen assessed as distribution volume ratio at 185 to 220 MBq, iv after 10 to 90 mins by PET analysis; format: ADME, organism-based, Macaca mulatta; conditions: rhesus monkey, in vivo
[6] = organism: Mus musculus; assay: Biodistribution in ddY mouse large intestine at 4.8 MBq/0.1 mL after 1 min by gamma counting; format: ADME, organism-based; conditions: in vivo
[7] = organism: Mus musculus; assay: Biodistribution in ddY mouse testis at 4.8 MBq/0.1 mL after 30 mins by gamma counting; format: ADME, organism-based; conditions: in vivo, 0.5 h
[8] = system: Brain; assay: Biodistribution in ddY mouse brain at 4.8 MBq/0.1 mL after 90 mins by gamma counting; format: ADME, organism-based; conditions: in vivo, 1.5 h
[9] = Drug uptake in monkey cerebellum assessed as distribution volume ratio at 185 to 220 MBq, iv after 10 to 90 mins by PET analysis; format: ADME, organism-based, Macaca mulatta; conditions: rhesus monkey, in vivo
[10] = system: Kidney; assay: Biodistribution in ddY mouse kidney at 4.8 MBq/0.1 mL after 30 mins by gamma counting; format: ADME, organism-based; conditions: in vivo, 0.5 h
[11] = system: Blood; assay: Biodistribution in ddY mouse blood at 4.8 MBq/0.1 mL after 30 mins by gamma counting; format: ADME, organism-based; conditions: in vivo, 0.5 h
[12] = system: Brain; assay: Biodistribution in ddY mouse brain at 4.8 MBq/0.1 mL after 30 mins by gamma counting; format: ADME, organism-based; conditions: in vivo, 0.5 h
[13] = Drug uptake in monkey cerebellum at 185 to 220 MBq, iv after 10 to 60 mins by PET analysis; format: ADME, organism-based, Macaca mulatta; conditions: rhesus monkey, in vivo
[14] = organism: Mus musculus; assay: Biodistribution in ddY mouse testis at 4.8 MBq/0.1 mL after 60 mins by gamma counting; format: ADME, organism-based; conditions: in vivo, 1 h
[15] = system: Heart; assay: Biodistribution in ddY mouse heart at 4.8 MBq/0.1 mL after 90 mins by gamma counting; format: ADME, organism-based; conditions: in vivo, 1.5 h
[16] = organism: Mus musculus; assay: Biodistribution in ddY mouse large intestine at 4.8 MBq/0.1 mL after 30 mins by gamma counting; format: ADME, organism-based; conditions: in vivo, 0.5 h
[17] = organism: Mus musculus; assay: Biodistribution in ddY mouse large intestine at 4.8 MBq/0.1 mL after 5 mins by gamma counting; format: ADME, organism-based; conditions: in vivo
[18] = system: Liver; assay: Biodistribution in ddY mouse liver at 4.8 MBq/0.1 mL after 15 mins by gamma counting; format: ADME, organism-based; conditions: in vivo, 0.25 h
[19] = Drug uptake in monkey thalamus at 185 to 220 MBq, iv after 10 to 60 mins by PET analysis; format: ADME, organism-based, Macaca mulatta; conditions: rhesus monkey, in vivo
[20] = system: Liver; assay: Biodistribution in ddY mouse liver at 4.8 MBq/0.1 mL after 5 mins by gamma counting; format: ADME, organism-based; conditions: in vivo
[21] = system: Pancreas; assay: Biodistribution in ddY mouse pancreas at 4.8 MBq/0.1 mL after 5 mins by gamma countingeas; format: ADME, organism-based; conditions: in vivo
[22] = system: Kidney; assay: Biodistribution in ddY mouse kidney at 4.8 MBq/0.1 mL after 1 min by gamma counting; format: ADME, organism-based; conditions: in vivo
[23] = system: Brain; assay: Biodistribution in ddY mouse brain at 4.8 MBq/0.1 mL after 60 mins by gamma counting; format: ADME, organism-based; conditions: in vivo, 1 h
[24] = system: Muscle tissue; assay: Biodistribution in ddY mouse muscle at 4.8 MBq/0.1 mL after 5 mins by gamma counting; format: ADME, organism-based; conditions: in vivo
[25] = organism: Mus musculus; assay: Biodistribution in ddY mouse small intestine at 4.8 MBq/0.1 mL after 90 mins by gamma counting; format: ADME, organism-based; conditions: in vivo, 1.5 h
[26] = Metabolic stability in Sprague-Dawley plasma assessed as unchanged drug level at 37 MBq/0.1 mL, iv after 5 mins; format: ADME, organism-based; conditions: rat, read-out: Stability
[27] = organism: Mus musculus; assay: Biodistribution in ddY mouse small intestine at 4.8 MBq/0.1 mL after 30 mins by gamma counting; format: ADME, organism-based; conditions: in vivo, 0.5 h
[28] = system: Brain; assay: Biodistribution in ddY mouse brain at 4.8 MBq/0.1 mL after 5 mins by gamma counting; format: ADME, organism-based; conditions: in vivo
[29] = system: Muscle tissue; assay: Biodistribution in ddY mouse muscle at 4.8 MBq/0.1 mL after 1 min by gamma counting; format: ADME, organism-based; conditions: in vivo
[30] = system: Muscle tissue; assay: Biodistribution in ddY mouse muscle at 4.8 MBq/0.1 mL after 15 mins by gamma counting; format: ADME, organism-based; conditions: in vivo, 0.25 h
[31] = system: Muscle tissue; assay: Biodistribution in ddY mouse muscle at 4.8 MBq/0.1 mL after 30 mins by gamma counting; format: ADME, organism-based; conditions: in vivo, 0.5 h
[32] = system: Kidney; assay: Biodistribution in ddY mouse kidney at 4.8 MBq/0.1 mL after 15 mins by gamma counting; format: ADME, organism-based; conditions: in vivo, 0.25 h
[33] = organism: Mus musculus; assay: Biodistribution in ddY mouse small intestine at 4.8 MBq/0.1 mL after 60 mins by gamma counting; format: ADME, organism-based; conditions: in vivo, 1 h
[34] = Metabolic stability in Sprague-Dawley brain assessed as unchanged drug level at 37 MBq/0.1 mL, iv after 30 mins; format: ADME, organism-based; conditions: rat, read-out: Stability
[35] = system: Heart; assay: Biodistribution in ddY mouse heart at 4.8 MBq/0.1 mL after 5 mins by gamma counting; format: ADME, organism-based; conditions: in vivo
[36] = organism: Mus musculus; assay: Biodistribution in ddY mouse large intestine at 4.8 MBq/0.1 mL after 60 mins by gamma counting; format: ADME, organism-based; conditions: in vivo, 1 h
[37] = system: Spleen; assay: Biodistribution in ddY mouse spleen at 4.8 MBq/0.1 mL after 5 mins by gamma counting; format: ADME, organism-based; conditions: in vivo
[38] = system: Muscle tissue; assay: Biodistribution in ddY mouse muscle at 4.8 MBq/0.1 mL after 60 mins by gamma counting; format: ADME, organism-based; conditions: in vivo, 1 h
[39] = Drug uptake in monkey caudate at 185 to 220 MBq, iv after 10 mins by PET analysis; format: ADME, organism-based, Macaca mulatta, Caudate nucleus; conditions: rhesus monkey, in vivo
[40] = system: Lung; assay: Biodistribution in ddY mouse lung at 4.8 MBq/0.1 mL after 15 mins by gamma counting; format: ADME, organism-based; conditions: in vivo, 0.25 h
[41] = system: Pancreas; assay: Biodistribution in ddY mouse pancreas at 4.8 MBq/0.1 mL after 15 mins by gamma countingeas; format: ADME, organism-based; conditions: in vivo, 0.25 h
[42] = system: Pancreas; assay: Biodistribution in ddY mouse pancreas at 4.8 MBq/0.1 mL after 1 min by gamma countingeas; format: ADME, organism-based; conditions: in vivo
[43] = system: Liver; assay: Biodistribution in ddY mouse liver at 4.8 MBq/0.1 mL after 30 mins by gamma counting; format: ADME, organism-based; conditions: in vivo, 0.5 h
[44] = Metabolic stability in Sprague-Dawley brain assessed as unchanged drug level at 37 MBq/0.1 mL, iv after 5 mins; format: ADME, organism-based; conditions: rat, read-out: Stability
[45] = system: Spleen; assay: Biodistribution in ddY mouse spleen at 4.8 MBq/0.1 mL after 90 mins by gamma counting; format: ADME, organism-based; conditions: in vivo, 1.5 h
[46] = system: Pancreas; assay: Biodistribution in ddY mouse pancreas at 4.8 MBq/0.1 mL after 90 mins by gamma countingeas; format: ADME, organism-based; conditions: in vivo, 1.5 h
[47] = system: Kidney; assay: Biodistribution in ddY mouse kidney at 4.8 MBq/0.1 mL after 5 mins by gamma counting; format: ADME, organism-based; conditions: in vivo
[48] = system: Spleen; assay: Biodistribution in ddY mouse spleen at 4.8 MBq/0.1 mL after 30 mins by gamma counting; format: ADME, organism-based; conditions: in vivo, 0.5 h
[49] = organism: Mus musculus; assay: Biodistribution in ddY mouse testis at 4.8 MBq/0.1 mL after 90 mins by gamma counting; format: ADME, organism-based; conditions: in vivo, 1.5 h
[50] = Drug uptake in monkey thalamus assessed as distribution volume ratio at 185 to 220 MBq, iv after 10 to 90 mins by PET analysis; format: ADME, organism-based, Macaca mulatta; conditions: rhesus monkey, in vivo

Question: What does the source list for `CC(C)Nc1cc(-c2csc(N(C)C(=O)c3ccc([14CH3])cc3)n2)ncn1`?
Answer: Drug uptake [1]: 0.06 % ID/g; Ratio [2]: 1.8; Drug uptake [3]: 0.27 % ID/g; Drug uptake [4]: 0.63 % ID/g; Ratio [5]: 1.5; Drug uptake [6]: 1.28 % ID/g; Drug uptake [7]: 0.22 % ID/g; Drug uptake [8]: 0.62 % ID/g; Ratio [9]: 4.3; Drug uptake [10]: 0.56 % ID/g; Drug uptake [11]: 0.14 % ID/g; Drug uptake [12]: 1.59 % ID/g; Drug uptake [13]: Active; Drug uptake [14]: 0.13 % ID/g; Drug uptake [15]: 0.01 % ID/g; Drug uptake [16]: 2.32 % ID/g; Drug uptake [17]: 1.03 % ID/g; Drug uptake [18]: 4.89 % ID/g; Drug uptake [19]: Active; Drug uptake [20]: 11.38 % ID/g; Drug uptake [21]: 1.23 % ID/g; Drug uptake [22]: 11.12 % ID/g; Drug uptake [23]: 1.04 % ID/g; Drug uptake [24]: 0.96 % ID/g; Drug uptake [25]: 7.09 % ID/g; remaining at 5 min [26]: 67.9%; Drug uptake [27]: 16.53 % ID/g; Drug uptake [28]: 2.58 % ID/g; Drug uptake [29]: 2.59 % ID/g; Drug uptake [30]: 0.23 % ID/g; Drug uptake [31]: 0.13 % ID/g; Drug uptake [32]: 1.32 % ID/g; Drug uptake [33]: 17.46 % ID/g; remaining at 0.5 h [34]: 97%; Drug uptake [35]: 1.28 % ID/g; Drug uptake [36]: 1.98 % ID/g; Drug uptake [37]: 0.93 % ID/g; Drug uptake [38]: 0.07 % ID/g; Drug uptake [39]: Active; Drug uptake [40]: 0.86 % ID/g; Drug uptake [41]: 0.3 % ID/g; Drug uptake [42]: 4.48 % ID/g; Drug uptake [43]: 1.43 % ID/g; remaining at 5 min [44]: 94%; Drug uptake [45]: 0.02 % ID/g; Drug uptake [46]: 0.04 % ID/g; Drug uptake [47]: 4.41 % ID/g; Drug uptake [48]: 0.07 % ID/g; Drug uptake [49]: 0.14 % ID/g; Ratio [50]: 2
